This is an account of results in patent publication EP3057950B1, “PHENYL LINKED QUINOLINYL MODULATORS OF ROR-GAMMA-T” (Janssen Pharmaceutica NV, priority 2013, dated 2015).

Where a name gives a salt, the structure may show the parent alone.

For assay [1], the target named is T1, wild type human RORγt ligand binding domain (RORγt LBD) (Homo sapiens, UniProt P51449).
T1 construct: His-tag (N); TurboTEV protease cleavage site (ENLYFQG) (N); made in house; host or cells: E. coli (pHIS1, modified pET expression vector)
T1 sequence (P51449 269-508 limits assumed): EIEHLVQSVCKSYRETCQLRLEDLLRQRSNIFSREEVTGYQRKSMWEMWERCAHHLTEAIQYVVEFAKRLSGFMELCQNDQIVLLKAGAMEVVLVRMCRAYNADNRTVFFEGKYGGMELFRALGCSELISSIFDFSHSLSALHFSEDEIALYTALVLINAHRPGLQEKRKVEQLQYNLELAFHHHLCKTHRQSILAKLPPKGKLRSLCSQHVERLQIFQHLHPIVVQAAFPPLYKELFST
As to the kind of experiment: RORγt ThermoFluor® Assay (thermal shift, binding affinity). Particulars: pH 7.0, estimated from concentration response curves. How it is done:
This approach is applicable to a wide variety of systems, and rigorous in theoretical interpretation through quantitation of equilibrium binding constants (KD).
The shift in the melting point described as a ΔTm is proportional to the concentration and affinity of the ligand.
Protein and compound solutions are dispensed into black 384-well polypropylene PCR microplates (Abgene) and overlayed with silicone oil (1 µL, Fluka, type DC 200) to prevent evaporation.
Bar-coded assay plates are robotically loaded onto a thermostatically controlled PCR-type thermal block and then heated at a typical ramp-rate of 1 °C/min for all experiments. Fluorescence was measured by continuous illumination with UV light (Hamamatsu LC6) supplied via fiber optic and filtered through a band-pass filter (380-400 nm; >6 OD cutoff). Fluorescence emission of the entire 384-well plate was detected by measuring light intensity using a CCD camera (Sensys, Roper Scientific) filtered to detect 500 ± 25 nm, resulting in simultaneous and independent readings of all 384 wells. Images were collected at each temperature, and the sum of the pixel intensity in a given area of the assay plate was recorded versus temperature. Reference wells contained RORγt without compounds, and the assay conditions were as follows: • 0.065 mg/mL RORγt • 60 µM 1,8-ANS • 100 mM Hepes, pH 7.0 • 10 mM NaCl • 2.5 mM GSH • 0.002% Tween-20
Project compounds were arranged in a pre-dosed mother plate (Greiner Bio-one) wherein compounds are serially diluted in 100% DMSO by 1:2 from a high concentration of 10 mM over 12 columns within a series (column 12 is a reference well containing DMSO, no compound). The compounds were robotically dispensed directly into assay plates (1x = 46 nL) using a Hummingbird capillary liquid handling instrument (Digilab). Following compound dispense, protein and dye in buffer was added to achieve the final assay volume of 3 µL, followed by 1 µL of silicone oil.

Assay [2] has as its target T2, wild type human RORγt LBD (Homo sapiens, UniProt P51449).
T2 construct: expressed in transfected cells; host or cells: HEK293T
T2 sequence (P51449 269-508 limits assumed): T1 sequence (P51449 269-508 limits assumed)
As to the kind of experiment: RORγt Reporter Assay (GAL4-RORγt LBD luciferase in HEK293T cells). It is filed as cell-based. To be noted: HEK293T cells; for IC50: compounds for 24 hours, read-out: RORγt reporter Assay, IC50; for inhibition at 6 µM: HEK-293T, read-out: RORγt reporter Assay, % inhibition @ 6 µM, @ 6 µM. From the text: A reporter assay was used to test functional activity of RORγt modulatory compounds on transcriptional activation driven by the RORγt LBD. Cells used in the assay were co-transfected with two constructs. The first construct, pBIND-RORγt LBD, contained the wild type human RORγt LBD fused to the DNA binding domain of the GAL4 protein. The second construct, pGL4.31 (Promega Cat no. C935A), contained multiple GAL4 responsive DNA elements upstream of firefly luciferase. […] The mutant construct was called pBIND-RORγt-AF2.
The pBIND vector contains the GAL4 DNA Binding Domain (GAL4 DBD) and the renilla luciferase gene under control of the SV40 promoter. Renilla luciferase expression serves as a control for transfection efficiency and cell viability.
The reporter assay was performed by transiently transfecting HEK293T cells with 5 µg of pBIND-RORγt LBD or pBIND-RORγt LBD-AF2 and 5 µg pGL4.31 (Promega Cat no. C935A) using Fugene 6 (Invitrogen Cat no. E2691) at a 1:6 ratio of DNA: Fugene 6 in a T-75 flask in which cells were at least 80% confluent. Twenty four hours after bulk transfection, cells were plated into 96-well plates at 50,000 cells/well in phenol-red free DMEM containing 5% Lipid Reduced FCS and Pen/Strep. Six hours after plating, cells were treated with compounds for 24 hours. Media was removed and cells were lysed with 50 µL 1x Glo Lysis Buffer (Promega). Dual Glo Luciferase Reagent (50 µL/well) was then added and firefly luciferase luminescence was read on an Envision after a ten minute incubation. Finally, Stop and Glo reagent (50 µL/well) was added and renilla luciferase luminescence was read on an Envision instrument after a ten minute incubation. To calculate the effect of compounds on RORγt activity, the ratio of firefly to renilla luciferase was determined and plotted against compound concentration. Agonist compounds increase RORγt-driven luciferase expression, and antagonist or inverse agonist compounds decrease luciferase expression.
In general terms: A reporter such as luciferase makes a cellular process visible.

In general, Kd refers to a measure of binding affinity in units of concentration. For orientation: IC50 means the concentration that gives 50% inhibition. As for `Cn1cncc1C(O)(c1ccc2nc(C#N)c(-c3ccccc3)c(C#N)c2c1)c1ccccn1` (single isomer, unassigned) [Example 18b, 6-(Hydroxy(1-methyl-1H-imidazol-5-yl)(pyridin-2-yl)methyl)-3-phenylquinoline-2,4-dicarbonitrile], the equilibrium dissociation constant (Kd) in assay [1] was 14000 nM. In addition, in assay [2], the “RORγt reporter Assay, % inhibition @ 6 µM” value came to 40% and the IC50 was greater than 6000 nM.
`Cn1cncc1C(O)(c1ccc2nc(C#N)c(-c3ccccc3)c(C#N)c2c1)c1ccccn1` (single isomer, unassigned) [Example 18c, 6-(Hydroxy(1-methyl-1H-imidazol-5-yl)(pyridin-2-yl)methyl)-3-phenylquinoline-2,4-dicarbonitrile]: the equilibrium dissociation constant (Kd) in assay [1] is 330 nM. In assay [2], the “RORγt reporter Assay, % inhibition @ 6 µM” value stood at 95% and the IC50 was 850 nM.
Turning to `COc1nc2c(C)cc(C(O)(c3ccc(C(F)(F)F)nc3)c3cncn3C)cc2c(C#N)c1-c1ccc(OC(F)(F)F)cc1` (single isomer, unassigned) [Example 19c, 6-(Hydroxy(1-methyl-1H-imidazol-5-yl)(6-(trifluoromethyl)pyridin-3-yl)methyl)-2-methoxy-8-methyl-3-(4-(trifluoromethoxy)phenyl)quinoline-4-carbonitrile], the Kd in assay [1] was 17 nM. In assay [2], the “RORγt reporter Assay, % inhibition @ 6 µM” value is recorded as 35% and the half-inhibitory concentration (IC50) is greater than 6000 nM.
As a reminder, the inhibition is the change of the read-out against control, counted positive when it falls. On to `CC(=O)N1CCC(C(O)(c2ccccc2)c2cc(C)c3nc(C#N)c(-c4ccccc4)c(C#N)c3c2)CC1` (single isomer, unassigned) [Example 21b, 6-((1-Acetylpiperidin-4-yl)(hydroxy)(phenyl)methyl)-8-methyl-3-phenylquinoline-2,4-dicarbonitrile], for which the Kd in assay [1] is 1300 nM. In assay [2], the 50% inhibitory concentration (IC50) turned out to be 1600 nM and the inhibition at 6 µM turned out to be 87%.
For the molecule `Cc1cc(C(O)(c2ccc(Cl)cc2)c2cncn2C)cc2c(C#N)c(-c3ccccc3)c(C#N)nc12` (single isomer, unassigned) [Example 23b, 6-((4-Chlorophenyl)(hydroxy)(1-methyl-1H-imidazol-5-yl)methyl)-8-methyl-3-phenylquinoline-2,4-dicarbonitrile], the Kd in assay [1] is 15000 nM. Moreover, in assay [2], the “RORγt reporter Assay, % inhibition @ 6 µM” value is listed as 60% and the IC50 was roughly 4000 nM.
Take `Cc1cc(C(O)(c2ccc(C(F)(F)F)nc2)c2cncn2C)cc2c(C#N)c(-c3ccccc3)c(C#N)nc12` (single isomer, unassigned) [Example 25b, 6-(Hydroxy(1-methyl-1H-imidazol-5-yl)(6-(trifluoromethyl)pyridin-3-yl)methyl)-8-methyl-3-phenylquinoline-2,4-dicarbonitrile]: the dissociation constant Kd in assay [1] is 3500 nM. Besides, in assay [2], the IC50 is roughly 2000 nM and the inhibition at 6 µM came out at 87%.
Turning to `CC(=O)N1CCC(C(O)(c2ccc(C(F)(F)F)nc2)c2cc(C)c3nc(C#N)c(-c4ccccc4)c(C#N)c3c2)CC1` (single isomer, unassigned) [Example 27b, 6-((1-Acetylpiperidin-4-yl)(hydroxy)(6-(trifluoromethyl)pyridin-3-yl)methyl)-8-methyl-3-phenylquinoline-2,4-dicarbonitrile], in assay [1], the Kd was 15000 nM. For the same molecule, in assay [2], the IC50 is roughly 4000 nM and the inhibition at 6 µM is 80%.
As for `CC(=O)N1CCC(C(O)(c2ccc(C(F)(F)F)nc2)c2cc(C)c3nc(C#N)c(-c4ccccc4)c(C#N)c3c2)CC1` (single isomer, unassigned) [Example 27c, 6-((1-Acetylpiperidin-4-yl)(hydroxy)(6-(trifluoromethyl)pyridin-3-yl)methyl)-8-methyl-3-phenylquinoline-2,4-dicarbonitrile], in assay [1], the equilibrium dissociation constant (Kd) is 820 nM. Further, in assay [2], the “RORγt reporter Assay, % inhibition @ 6 µM” value is given as 96% and the IC50 was 2100 nM.
In the case of `COc1c(-c2ccccc2)c(C(F)(F)F)nc2ccc(C(O)(c3ccccn3)c3cncn3C)cc12` (single isomer, unassigned) [Example 32b, (4-Methoxy-3-phenyl-2-(trifluoromethyl)quinolin-6-yl)(1-methyl-1H-imidazol-5-yl)(pyridin-2-yl)methanol], the Kd in assay [1] is 770 nM. In assay [2], the concentration for half-maximal inhibition (IC50) was found to be 1200 nM and the inhibition at 6 µM came out at 92%.
Take `COc1c(-c2ccccc2)c(C(F)(F)F)nc2ccc(C(O)(c3ccc(Cl)cc3)c3cncn3C)cc12` (single isomer, unassigned) [Example 33b, (4-Chlorophenyl)(4-methoxy-3-phenyl-2-(trifluoromethyl)quinolin-6-yl)(1-methyl-1H-imidazol-5-yl)methanol]: the Kd in assay [1] was 13000 nM. Also, in assay [2], the “RORγt reporter Assay, % inhibition @ 6 µM” value is given as 64% and the IC50 is roughly 4000 nM.
Turning to `CC(=O)N1CCC(C(O)(c2ccc3nc(C(F)(F)F)c(-c4ccccc4)c(Cl)c3c2)c2cncn2C)CC1` (single isomer, unassigned) [Example 34b, 1-(4-((4-Chloro-3-phenyl-2-(trifluoromethyl)quinolin-6-yl)(hydroxy)(1-methyl-1H-imidazol-5-yl)methyl)piperidin-1-yl)ethanone], in assay [1], the equilibrium dissociation constant (Kd) is 450 nM. Moreover, in assay [2], the IC50 was determined as 1000 nM and the inhibition at 6 µM was determined as 90%.
Regarding `COc1c(-c2ccccc2)c(Cl)nc2ccc(C(O)(c3cnnn3C)c3cnc(C)n3C)cc12` (single isomer, unassigned) [Example 40b, (2-Chloro-4-metboxy-3-phenylquinolin-6-yl)(1,2-dimethyl-1H-imidazol-5-yl)(1-methyl-1H-1,2,3-triazol-5-yl)methanol], the inhibition at 6 µM in assay [2] was determined as 97%.
Regarding `COCCN(C)c1nc2ccc(C(O)(c3ccc(C(F)(F)F)nc3)c3cncn3C)cc2c(Cl)c1-c1ccccc1` (centres unmarked) [Example 53, {4-Chloro-2-[(2-methoxyethyl)(methyl)amino]-3-phenylquinolin-6-yl}(1-methyl-1H-imidazol-5-yl)[6-(trifluoromethyl)pyridin-3-yl]methanol], the Kd in assay [1] is 7.2 nM.
On to `CON(C)c1nc2ccc(C(O)(c3ccc(Cl)cc3)c3cncn3C)cc2c(N(C)OC)c1-c1ccccc1` (centres unmarked) [Example 59, {2,4-Bis[methoxy(methyl)amino]-3-phenylquinolin-6-yl}(4-chlorophenyl)(1-methyl-1H-imidazol-5-yl)methanol], for which the inhibition at 6 µM in assay [2] was found to be 98%.
Consider `CC(C)Oc1nc2ccc(C(O)(c3cccnc3)c3cccc(Cl)c3)cc2cc1-c1ccccc1` (centres unmarked) [Example 79, (3-Chlorophenyl)(2-isopropoxy-3-phenylquinolin-6-yl)(pyridin-3-yl)methanol•TFA], for which the Kd in assay [1] was 17000 nM.
Take `CCOc1nc2ccc(C(O)(c3cccnc3)c3cccc(Cl)c3)cc2c(OCC)c1-c1ccccc1` (centres unmarked) [Example 81, (3-Chlorophenyl)(2,4-diethoxy-3-phenylquinolin-6-yl)(pyridin-3-yl)methanol•TFA]: the equilibrium dissociation constant (Kd) in assay [1] was 14000 nM.
